Reference: patent US4495201A, “Pharmaceutical composition and method for treating heart diseases therewith” (Institut Organicheskoi Khimii Imeni N.D. Zelinskogo, priority 1982, dated 1985)

Key:
Solubility and stability = format: physicochemical
[1] = tested on: left ventricle of the heart; test: Intracardiac hemodynamics (intracavitary pressure); format: in vivo, rabbits; details: versus the composition
[2] = tested on: zone of necrosis, perinecrotic zone and myocardium regions spaced from the place of infarction; test: Experimental myocardial infarction in rabbits: histological, histochemical and electron-microscopic study; format: in vivo, rabbits of the Chinchilla variety; details: for effect on reparative processes in the zone of necrosis / organization of the post-infarction scar: comparison of preparations; for activity of lysis-ensuring enzymes: zone of necrosis and perinecrotic areas
From the text: The experiment on animals has been performed on 419 rabbits of the Chinchilla variety with experimentally-induced myocardial infarction produced by ligation of the front descending branch of the coronary artery.
The effect of the composition according to the present invention on the progress of the experimental myocardial infarction has been studied in comparison with the effect produced by inosine, potassium orotate, vitamin B12 with folic acid and retabolyl.
Histological, histochemical and electron-microscopic methods of investigation have been employed to study the zone of necrosis, perinecrotic zone and myocardium regions spaced from the place of infarction by 1, 3 and 7 days after operation. Furthermore, to determine the contractile ability of myocardium, measurements of intracavitary pressure have been performed. Dynamic electrocardiographic observation over the animals was carried out 7 times during the first day (prior to operation, 15, 30 minutes, 1, 2, 3 and 4 hours after the administration) and during the following days two times a day (before and one hour after the administration).
The study of the total cross-sectional patterns of a rabbit's heart has made it possible to precisely define these zones.
The first group of rabbits has been intramuscularly injected with the composition according to the present invention in the dose of 1 mg/kg in a day.
The second group of rabbits has been injected with inosine in a dose of 30 mg/kg intravenously daily once a day; for the first time 16 hours after the operation and for the last time 2 hours before slaughter (i.e. before the 7th day). The third group of rabbits has been given potassium orotate in a dose of 30 mg/kg in the same sequence as the previous preparation, i.e. up to the 7th day.
The fourth group of animals has been administered vitamin B12 3γ/kg in combination with folic acid in the same sequence.
The fifth group of rabbits has been administered an anabilic hormone of a prolonged action--retabolyl in a dose of 5 mg/kg of the bodyweight 1-2 times intramuscularly up to the 7th day.

[3] = tested on: insufficiency of blood circulation and post-infarctional aneurysm; test: Clinical outcome: insufficiency of blood circulation and post-infarction aneurysm; format: in vivo, patients; details: comparison of the composition and inosine
Procedure: (§1) The composition according to the present invention is administered to the patients intramuscularly in a dose of from 25 to 50 mg once every three days.
A further dynamic electrocardiographic observation is effected during the first day of injection of the composition (prior to injection and 1 and 2 hours thereafter), then once per 3 and later on--per 5 days. On the 1th, 10th, 20th and 40th days of the disease the central hemodynamics was determined by the method of radiocardiography. On the 10th and 40th days of the illness the contractile capacity of myocardium is assessed by methods of electro- and X-ray kymography. The biochemical control over the effect of the preparation was effected by determination, in dynamics in blood serum, of the products of decomposition of DNA, proline, hydroxyproline, transaminases. There was also analyzed the dynamics of normalization of leukocytosis, ESR (erythrocyte sedimentation rate), disappearance of aneosinophilia. The careful clinical assessment of the effect of the composition was also performed.

central hemodynamics = test: Central hemodynamics by radiocardiography in patients with myocardial infarction; format: in vivo; details: as compared to the control
Procedure: as §1
On the 1th, 10th, 20th and 40th days of the disease the central hemodynamics was determined by the method of radiocardiography.

**Q.** With `CC(C)=CCCC(C)=CCC(CCCN(C)C)C(=O)O` (stereo not shown) [4',5,9-trimethyl-2-(4'-aza-pentyl)decadi-4,8-ene acid] as the molecule, how does the “solubility in aqueous solutions of strong acids, alkalis, diluted solutions of salts” value (Solubility and stability) read?
**A.** well soluble

**Q.** What about the “solubility in fats and vegetable oils” value (Solubility and stability) of the same molecule?
**A.** well soluble

**Q.** What about the “solubility in organic solvents (ethanol, ether, acetone, gasoline, benzene)” value (Solubility and stability) of the same molecule?
**A.** well soluble

**Q.** And the solubility in water (Solubility and stability)?
**A.** well soluble

**Q.** And the “stability of aqueous solutions” value (Solubility and stability; aqueous solutions)?
**A.** transparent, stable and can be sterilized by conventional methods

**Q.** What about the stability in storage (Solubility and stability; not more than 25° C., advisable period two years) of the same molecule?
**A.** stable in storage

**Q.** What does the source list for `O=c1[nH]cnc2c1ncn2[C@@H]1O[C@H](CO)[C@@H](O)[C@H]1O` [inosine, hypoxanthine riboside]?
**A.** effect on formation of compensatory hyperfunction and hypertrophy of extrainfarction areas [1]: more marked effect; cellular infiltration of the zone of necrosis [2]: enhanced cellular infiltration of the zone of infarction; effect on reparative processes in the zone of necrosis / organization of the post-infarction scar [2]: substantially less pronounced than the effect of the preparation according to the present invention; activity of lysis-ensuring enzymes [2]: increasing activity of lysis-ensuring enzymes is limited only to the zone of necrosis; patients in whom effect on state of blood circulation is greatest [3]: most pronounced effect on the state of blood circulation in patients with a repeated myocardial infarction; regaining of hemodynamic characteristics (cardiac and systolic indices, beat work of the heart) (central hemodynamics): more pronounced and earlier regaining

**Q.** With `O=C(O)c1cc(O)nc(O)n1` [potassium orotate, 2,6-dihydroxypyrimidine-4-carboxylic acid] as the molecule, how does the “effect on formation of compensatory hyperfunction and hypertrophy of extrainfarction areas” value [1] read?
**A.** more marked effect

**Q.** And the “activity of lactatedehydrogenase in extra-infarction areas of myocardium” value [2]?
**A.** slightly less pronounced effect

**Q.** What about the “effect on reparative processes in the zone of necrosis / organization of the post-infarction scar” value [2] of the same molecule?
**A.** still less pronounced effect

**Q.** And the “activity of reactions of pentose-phosphate shunt (glucoso-6-phosphatehydrogenase)” value ([2]; perinecrotic areas of myocardium)?
**A.** slightly increasing activity

**Q.** What about the “activity of lysis-ensuring enzymes” value [2] of the same molecule?
**A.** slightly increasing activity

**Q.** With `CCCCCCCCCC(=O)O[C@H]1CC[C@H]2[C@@H]3CCC4=CC(=O)CC[C@@H]4[C@H]3CC[C@]12C` [retabolyl, nandrolone decanoate] as the molecule, how does the “activity of lactatedehydrogenase in extra-infarction areas of myocardium” value [2] read?
**A.** slightly less pronounced effect

**Q.** And the “effect on reparative processes in the zone of necrosis / organization of the post-infarction scar” value [2]?
**A.** less pronounced
